{"source": "paper doi:10.1101/2025.06.24.661388v1", "about": "(biorxiv, 2025)", "key": {"[1]": {"biological_target": "T1, monoacylglycerol lipase (MAGL), human temporal cortex (Homo sapiens, UniProt Q99685)", "T1 sequence (Q99685 1-303)": "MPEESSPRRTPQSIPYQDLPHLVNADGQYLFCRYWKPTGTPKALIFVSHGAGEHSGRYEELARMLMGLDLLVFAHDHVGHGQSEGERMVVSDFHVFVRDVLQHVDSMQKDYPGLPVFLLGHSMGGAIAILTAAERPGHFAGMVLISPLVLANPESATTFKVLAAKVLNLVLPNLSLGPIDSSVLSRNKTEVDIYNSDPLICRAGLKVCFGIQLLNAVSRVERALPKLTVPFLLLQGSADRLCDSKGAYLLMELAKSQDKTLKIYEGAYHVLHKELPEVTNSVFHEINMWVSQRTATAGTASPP", "experiment": "displacement autoradiography on brain sections", "conditions": "unlabelled T-401 against […] [3H]T-401, room temperature"}, "[2]": {"biological_target": "T2, monoacylglycerol lipase (MAGL), mouse brain (Mus musculus, UniProt O35678)", "T2 sequence (O35678 1-303)": "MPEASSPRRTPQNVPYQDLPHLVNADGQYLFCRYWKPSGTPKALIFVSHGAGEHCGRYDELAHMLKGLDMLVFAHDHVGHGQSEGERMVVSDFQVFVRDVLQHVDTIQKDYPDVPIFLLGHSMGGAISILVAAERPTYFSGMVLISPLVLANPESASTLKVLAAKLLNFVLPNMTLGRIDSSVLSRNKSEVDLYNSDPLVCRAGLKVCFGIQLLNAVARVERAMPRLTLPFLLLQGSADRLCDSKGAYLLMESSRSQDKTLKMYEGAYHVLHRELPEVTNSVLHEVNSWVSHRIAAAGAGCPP", "experiment": "displacement autoradiography on brain sections", "conditions": "unlabelled T-401 against […] [3H]T-401; hippocampus and cerebral cortex"}, "[3]": {"biological_target": "T2, monoacylglycerol lipase (MAGL), mouse brain", "experiment": "saturation autoradiography on brain sections", "conditions": "labelled compound; [3H]T-401 […]; […] min; cerebral cortex"}, "[4]": {"biological_target": "T1, monoacylglycerol lipase (MAGL), human temporal cortex", "experiment": "saturation autoradiography on brain sections", "conditions": "labelled compound, [3H]T-401 […] min, room temperature"}}}
{"smiles": "Cc1ccnc(F)c1-c1cccc(N2C[C@H](N3CCN(C(=O)c4nccs4)CC3)CC2=O)c1", "note": "[T-401, (R)-1-(3-(2-fluoro-4-methylpyridin-3-yl)phenyl)-4-(4-(thiazole-2-carbonyl)piperazin-1-yl)pyrrolidine-2-one]", "values": [{"measurement": "IC50", "setting": "[1]", "result": 32, "unit": "nM"}, {"measurement": "IC50", "setting": "[2]", "result": 41, "unit": "nM"}, {"measurement": "Kd", "setting": "[3]", "result": 5.8, "unit": "nM"}, {"measurement": "Kd", "setting": "[4]", "result": "4.7 ± 0.8", "unit": "nM"}]}
